# Measurements reported in US8841310B2, “Combinations of a pyrimidine containing NNRTI with RT inhibitors” (Janssen R & D Ireland, priority 2003, dated 2014).
# “And” between values parts separate entries of the source, which are not always exact repeats. Equal values may be shown once. Read-outs that look alike come from different tables or passages of the source.
# Key:
# [1] = tested on: monotropic HIV strain Ba-L; assay: MO-DC/CD4(+) T cell co-culture model of sexual HIV transmission; type: cell-based; details: Human immunodeficiency virus 1, BAL, T-cell, 336 h, read-out: EC50 (concentration suppressing 50% of viral replication)
# Excerpt: Immature monocyte derived dendritic cells (immMO-DC) represent a good model for interstitial dendritic cells, which are early targets during sexual HIV transmission and important initiators of the immune response. These immMO-DC were used in “in vitro” models to test the prevention of HIV infection via sexual intercourse or related intimate contact between partners.
# For instance, in one model, monocyte-derived dendritic cells (MO-DC) were infected for 2-hours with the monotropic HIV strain Ba-L at a multiplicity of infection (MOI) of 10^−3. After infection, cells were washed 6 times and resuspended in 10% BCS at 400.000 cells/ml. Autologous CD4(+) T cells were purified out of the lymphocyte fraction of the same elutration as the MO-DC and used at a concentration of 2×10^6 cells/ml ((ratio MO-DC/CD4(+) T: 1/5).
# A serial dilution of a compound of formula (I) (test compound) was added to the MO-DC/CD4(+) T cell co-cultures. Each experiment was done in 96-well plates, in which each cup contained 50 μl of MO-DC, 50 μl of CD4(+) T cells and 100 μl of test compound. Half of the culture medium, with test compound, was refreshed twice weekly. Supernatants were analysed in ELISA after 14 days of culture. To determine antiviral activity, the test compound concentration able to suppress 50% of the viral replication at the end of the primary cultures (EC50) was measured.
# HIV-1 mutant 225H = assay: MT-4 cell-based antiviral assay, SDM mutant; details: Human immunodeficiency virus 1, MT4
# Procedure: (§1) Compound E-TMC278 was tested in a cell-based assay, using natural host cells of HIV. MT-4 cells (a cell line of human T cells) were infected with HIV-1 (wild type or mutants) and exposed to different concentrations of antiviral compound in the presence of 10% fetal calf serum. Cytotoxicity was determined in parallel with the antiviral activity so that the selectivity of the antiviral effect could be assessed. Active compounds have to penetrate the cell membrane in order to interfere with replication steps inside the cell.
# (§2) After four days of incubation at 37° C., the viability of the HIV and mock-infected cells was assessed by an automated tetrazolium-based calorimetric assay. This method enabled the calculation of both the 50% inhibitory concentration for inhibition of viral cytopathicity (IC50), the IC90, and the 50% cytotoxic concentration (CC50). The ratio CC50/IC50, also called the selectivity index, is an indication of the specificity of the antiviral effect. Tested HIV strains included: Wild type (wt) HIV-1; a panel of single and double mutants, obtained by site-directed mutagenesis (SDM), and a panel of clinical isolates, selected for resistance against NNRTIs.
# (§3) A limited panel of HIV-1 mutants was constructed using site-directed mutagenesis (SDM) and homologous recombination techniques. […] Nevirapine (NVP) and efavirenz (EFV) were included as controls.
# HIV-1 mutant 188L = assay: MT-4 cell-based antiviral assay, SDM mutant
# Procedure: as §1, §2, §3
# [2] = tested on: HIV-1 double mutant 101E + 103N; assay: MT-4 cell-based antiviral assay, SDM mutant; details: Human immunodeficiency virus 1, MT4, 96 h
# Procedure: as §1, §2, §3
# HIV-1 mutant 108I = assay: MT-4 cell-based antiviral assay, SDM mutant; details: Human immunodeficiency virus 1, MT4
# Procedure: as §1, §2, §3
# [3] = tested on: HIV-1 double mutant 103N + 181I; assay: MT-4 cell-based antiviral assay, SDM mutant; details: Human immunodeficiency virus 1, MT4, 96 h
# Procedure: as §1, §2, §3
# HIV-1 mutant 101E = assay: MT-4 cell-based antiviral assay, SDM mutant; details: Human immunodeficiency virus 1, MT4
# Procedure: as §1, §2, §3
# HIV-1 mutant 179D = assay: MT-4 cell-based antiviral assay, SDM mutant; details: Human immunodeficiency virus 1, MT4
# Procedure: as §1, §2, §3
# HIV-1 mutant 227L = assay: MT-4 cell-based antiviral assay, SDM mutant; details: Human immunodeficiency virus 1, MT4
# Procedure: as §1, §2, §3
# [4] = tested on: HIV-1 double mutant 103N + 181C; assay: MT-4 cell-based antiviral assay, SDM mutant
# Procedure: as §1, §2, §3
# HIV-1 mutant 103N = assay: MT-4 cell-based antiviral assay, SDM mutant
# Procedure: as §1, §2, §3
# HIV-1 mutant 227C = assay: MT-4 cell-based antiviral assay, SDM mutant
# Procedure: as §1, §2, §3
# HIV-1 mutant 190A = assay: MT-4 cell-based antiviral assay, SDM mutant; details: Human immunodeficiency virus 1, MT4
# Procedure: as §1, §2, §3
# HIV-1 mutant 188H = assay: MT-4 cell-based antiviral assay, SDM mutant; details: Human immunodeficiency virus 1, MT4
# Procedure: as §1, §2, §3
# HIV-1 mutant 236L = assay: MT-4 cell-based antiviral assay, SDM mutant; details: Human immunodeficiency virus 1, MT4
# Procedure: as §1, §2, §3
# HIV-1 mutant 188C = assay: MT-4 cell-based antiviral assay, SDM mutant; details: Human immunodeficiency virus 1, MT4
# Procedure: as §1, §2, §3
# [5] = Phase I single oral dose trials: safety, tolerability, pharmacokinetics; type: in vivo, human; details: for Cmax / half-life / Tmax: human, plasma; for half-life / Tmax: male
# Procedure: Oral doses of 12.5, 25, and 50 mg were formulated in PEG 400 and taken with a standard meal.
# There was a time interval of about 14 days between each dosing session
# HIV-1 single mutant 103N = assay: Development of resistance in vitro, starting from single mutant; type: cell-based; details: starting from 103N
# Excerpt: (§4) Emerging virus was collected for pheno- and genotyping. Cultures without evidence of virus replication were further sub-cultivated in the presence of the same concentration of inhibitor for a total duration of 30 days (10 passages).
# [6] = tested on: HIV-1 single mutant Y181C; assay: as above; type: cell-based
# Excerpt: as §4
# [7] = tested on: HIV-1 double resistant mutant K103N+Y181C; assay: Development of resistance in vitro, starting from double mutant; type: cell-based
# Excerpt: as §4
# [8] = Cardiovascular and pulmonary safety in vitro; details: concentrations covering or exceeding the anti-viral concentration in vitro
# wild type HIV-1 = assay: Development of resistance in vitro, MT4 cells, high multiplicity of infection; type: cell-based; details: wild type HIV-1, >1 infectious virus per cell, all tested concentrations, total 30 days
# Excerpt: as §4
# HIV-1 wild type = assay: MT-4 cell-based antiviral assay (viral cytopathicity, tetrazolium); details: Human immunodeficiency virus 1, MT4, wild type virus
# Procedure: as §1, §2
# [9] = Cardiovascular and pulmonary safety in vivo; details: plasma levels covering and exceeding the targeted plasma levels in man
# [10] = Human immunodeficiency virus 1, MT4
# [11] = Human immunodeficiency virus 1, MT4, read-out: IC50 value
# [12] = single oral doses, healthy volunteers
compound,measurement,setting,value
"Cc1cc(/C=C/C#N)cc(C)c1Nc1ccnc(Nc2ccc(C#N)cc2)n1 [E-TMC278, (E)-4-[[4-[[4-(2-cyanoethenyl)-2,6-dimethylphenyl]-amino]-2-pyrimidinyl]-amino]-benzonitrile]",EC50,[1],0.55 nM
same,IC50,HIV-1 mutant 225H,0.3 nM
same,IC50,HIV-1 mutant 188L; [10],2 nM
same,IC50,HIV-1 mutant 188L; [11],2 nM
same,IC50,[2],0.5 nM
same,IC50,HIV-1 mutant 108I,0.3 nM
same,IC50,[3],1 nM
same,IC50,HIV-1 mutant 101E,1.6 nM
same,IC50,HIV-1 mutant 179D,0.6 nM
same,IC50,HIV-1 mutant 227L,0.3 nM
same,IC50,[4]; [10],0.8 nM
same,IC50,[4]; [11],1 nM
same,IC50,HIV-1 mutant 103N; [10],0.3 nM
same,IC50,HIV-1 mutant 103N; [11],0.3 nM
same,IC50,HIV-1 mutant 227C; [10],2 nM
same,IC50,HIV-1 mutant 227C; [11],2 nM
same,IC50,HIV-1 mutant 190A,0.3 nM
same,IC50,HIV-1 mutant 188H,0.2 nM
same,IC50,HIV-1 mutant 236L,0.3 nM
same,IC50,HIV-1 mutant 188C,0.1 nM
same,correlation coefficient for AUC0-48 hr (dose proportionality),[5]; 12.5-200 mg,0.9952
same,correlation coefficient for the 5 Cmax datapoints (dose proportionality),[5]; 12.5-200 mg,0.9897
same,Cmax,"[5]; single oral dose 25 mg in PEG 400 with standard meal, healthy male volunteers",149 ± 32 ng/mL
same,Cmax,"[5]; single oral dose 50 mg in PEG 400 with standard meal, healthy male volunteers",267 ± 27 ng/mL
same,Cmax,"[5]; single oral dose 100 mg, healthy male subjects",482 ± 121 ng/mL
same,Cmax,"[5]; single oral dose 200 mg, healthy male subjects",807 ± 207 ng/mL
same,half-life,"[5]; across single oral doses, read-out: Half-life of plasma concentrations",37 to 39 h
same,Tmax,[5]; single oral dose 12.5 mg,4 h
same,half-life,"[5]; single oral dose 12.5 mg, read-out: T1/2 (converted)",37.1 h
same,Tmax,[5]; single oral dose 25 mg,4 ± 1.3 h
same,half-life,"[5]; single oral dose 25 mg, read-out: T1/2 (converted)",38.7 h
same,Tmax,[5]; single oral dose 50 mg,4 ± 1.3 h
same,half-life,"[5]; single oral dose 50 mg, read-out: T1/2 (converted)",45 ± 9 h
same,Tmax,[5]; single oral dose 100 mg,4.3 ± 0.8 h
same,half-life,"[5]; single oral dose 100 mg, read-out: T1/2 (converted)",55 ± 18 h
same,Tmax,[5]; single oral dose 200 mg,4.3 ± 0.8 h
same,Adverse effects,[5]; [12],No relevant adverse effects
same,Tolerability,[5]; [12],well tolerated
same,virus breakthrough,HIV-1 single mutant 103N; at 10 nM,did occur
same,virus breakthrough,HIV-1 single mutant 103N; at 40 and 200 nM,did not occur
same,virus breakthrough,[6]; at 10 nM,did occur
same,virus breakthrough,[6]; at 40 and 200 nM,did not occur
same,emergence of resistance,[7],resistance did emerge at all tested concentrations
same,effect on cardiovascular and pulmonary parameters in vitro,[8],little or no effect
same,time to emergence of resistant virus,wild type HIV-1,> 30 days
same,IC90,HIV-1 wild type,1.3 nM and 0.00048 µg/mL
same,IC50,HIV-1 wild type; read-out: IC50,0.15 ng/mL
same,effect on cardiovascular and pulmonary parameters in vivo,[9],little or no effect
